In ChEMBL document CHEMBL4130404, “Lamellodysidines A and B, Sesquiterpenes Isolated from the Marine Sponge Lamellodysidea herbacea” (J Nat Prod, 2017):
The source made the active and inactive calls.

What was measured:
[1] = tested on: Macrophage; assay: Inhibition of RANKL-induced formation of multinuclear osteoclasts in macrophages (unknown origin); format: functional, cell-based
[2] = tested on: Macrophage; assay: Inhibition of cholesterol ester accumulation in macrophages (unknown origin); format: functional, cell-based
[3] = organism: Homo sapiens; assay: Inhibition of ubiquitin/Ubc13/Uev1A (unknown origin)
[4] = biological target: Tumour suppressor p53/oncoprotein Mdm2 (Homo sapiens) (UniProt P04637+Q00987); assay: Inhibition of ubiquitin/p53/Mdm2 (unknown origin); format: protein assay
Chain of Tumour suppressor p53/oncoprotein Mdm2 (Homo sapiens) (P04637 whole entry, looked up): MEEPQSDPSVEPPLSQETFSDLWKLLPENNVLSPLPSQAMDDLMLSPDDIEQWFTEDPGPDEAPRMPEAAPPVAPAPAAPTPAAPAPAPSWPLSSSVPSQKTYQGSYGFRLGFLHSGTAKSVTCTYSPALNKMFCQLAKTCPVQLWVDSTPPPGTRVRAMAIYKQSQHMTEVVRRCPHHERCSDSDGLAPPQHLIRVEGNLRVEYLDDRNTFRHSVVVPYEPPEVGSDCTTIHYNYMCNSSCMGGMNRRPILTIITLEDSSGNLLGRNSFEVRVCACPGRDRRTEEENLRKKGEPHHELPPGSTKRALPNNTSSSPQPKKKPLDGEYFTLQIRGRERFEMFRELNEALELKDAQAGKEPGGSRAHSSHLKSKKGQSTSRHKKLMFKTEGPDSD
Chain of Tumour suppressor p53/oncoprotein Mdm2 (Homo sapiens) (Q00987 whole entry, looked up): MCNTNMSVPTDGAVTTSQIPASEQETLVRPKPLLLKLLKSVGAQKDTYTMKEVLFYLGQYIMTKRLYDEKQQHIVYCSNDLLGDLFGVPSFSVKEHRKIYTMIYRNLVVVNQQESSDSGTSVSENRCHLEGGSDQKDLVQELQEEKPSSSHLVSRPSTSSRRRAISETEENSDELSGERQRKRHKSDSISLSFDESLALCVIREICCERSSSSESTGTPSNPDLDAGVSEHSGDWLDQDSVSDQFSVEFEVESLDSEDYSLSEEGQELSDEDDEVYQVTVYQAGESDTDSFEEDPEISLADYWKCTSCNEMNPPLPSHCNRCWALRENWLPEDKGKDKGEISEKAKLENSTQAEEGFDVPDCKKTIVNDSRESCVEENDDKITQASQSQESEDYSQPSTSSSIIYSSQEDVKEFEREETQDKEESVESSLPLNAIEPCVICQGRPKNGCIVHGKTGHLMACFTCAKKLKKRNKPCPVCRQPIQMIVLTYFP

[5] = biological target: Ubiquitin carboxyl-terminal hydrolase 7 (Homo sapiens) (UniProt Q93009); assay: Inhibition of ubiquitin/USP7 (unknown origin)
Chain of Ubiquitin carboxyl-terminal hydrolase 7 (Homo sapiens) (Q93009 whole entry, looked up): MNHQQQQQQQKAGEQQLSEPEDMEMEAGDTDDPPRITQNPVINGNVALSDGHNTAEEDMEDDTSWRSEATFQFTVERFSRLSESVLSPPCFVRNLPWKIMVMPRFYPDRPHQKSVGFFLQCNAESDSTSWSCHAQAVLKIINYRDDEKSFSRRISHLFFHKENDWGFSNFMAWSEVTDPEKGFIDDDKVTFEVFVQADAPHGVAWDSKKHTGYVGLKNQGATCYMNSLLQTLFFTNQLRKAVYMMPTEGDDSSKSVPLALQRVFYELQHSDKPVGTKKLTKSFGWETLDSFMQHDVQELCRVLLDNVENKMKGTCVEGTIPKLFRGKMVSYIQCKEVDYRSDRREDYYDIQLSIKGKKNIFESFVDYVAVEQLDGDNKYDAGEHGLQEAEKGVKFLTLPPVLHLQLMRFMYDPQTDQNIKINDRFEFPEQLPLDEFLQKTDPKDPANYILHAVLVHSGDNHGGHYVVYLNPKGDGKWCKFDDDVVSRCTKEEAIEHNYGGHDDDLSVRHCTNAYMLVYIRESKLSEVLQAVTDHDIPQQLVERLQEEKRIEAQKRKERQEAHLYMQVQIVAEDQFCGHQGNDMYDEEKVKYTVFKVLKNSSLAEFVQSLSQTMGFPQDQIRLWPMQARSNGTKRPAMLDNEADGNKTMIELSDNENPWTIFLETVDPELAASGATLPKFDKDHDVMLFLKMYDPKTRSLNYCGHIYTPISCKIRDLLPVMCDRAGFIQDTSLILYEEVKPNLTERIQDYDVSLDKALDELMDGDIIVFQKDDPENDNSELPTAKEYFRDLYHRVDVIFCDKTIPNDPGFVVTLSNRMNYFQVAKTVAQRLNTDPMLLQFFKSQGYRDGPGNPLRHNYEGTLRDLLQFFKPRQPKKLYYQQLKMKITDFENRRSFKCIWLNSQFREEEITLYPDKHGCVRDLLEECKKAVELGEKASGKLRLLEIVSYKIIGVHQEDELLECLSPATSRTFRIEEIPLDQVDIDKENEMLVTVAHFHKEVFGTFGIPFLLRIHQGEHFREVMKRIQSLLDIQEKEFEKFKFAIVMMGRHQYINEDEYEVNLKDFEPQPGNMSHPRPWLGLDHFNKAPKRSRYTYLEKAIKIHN

[6] = organism: Homo sapiens; assay: Inhibition of ubiquitin/proteasome (unknown origin)
[7] = biological target: T1, Ubiquitin-like modifier-activating enzyme 1 (Homo sapiens) (UniProt P22314); assay: Inhibition of ubiquitin/ubiquitin-activating enzyme E1 (unknown origin)
T1 sequence (whole entry): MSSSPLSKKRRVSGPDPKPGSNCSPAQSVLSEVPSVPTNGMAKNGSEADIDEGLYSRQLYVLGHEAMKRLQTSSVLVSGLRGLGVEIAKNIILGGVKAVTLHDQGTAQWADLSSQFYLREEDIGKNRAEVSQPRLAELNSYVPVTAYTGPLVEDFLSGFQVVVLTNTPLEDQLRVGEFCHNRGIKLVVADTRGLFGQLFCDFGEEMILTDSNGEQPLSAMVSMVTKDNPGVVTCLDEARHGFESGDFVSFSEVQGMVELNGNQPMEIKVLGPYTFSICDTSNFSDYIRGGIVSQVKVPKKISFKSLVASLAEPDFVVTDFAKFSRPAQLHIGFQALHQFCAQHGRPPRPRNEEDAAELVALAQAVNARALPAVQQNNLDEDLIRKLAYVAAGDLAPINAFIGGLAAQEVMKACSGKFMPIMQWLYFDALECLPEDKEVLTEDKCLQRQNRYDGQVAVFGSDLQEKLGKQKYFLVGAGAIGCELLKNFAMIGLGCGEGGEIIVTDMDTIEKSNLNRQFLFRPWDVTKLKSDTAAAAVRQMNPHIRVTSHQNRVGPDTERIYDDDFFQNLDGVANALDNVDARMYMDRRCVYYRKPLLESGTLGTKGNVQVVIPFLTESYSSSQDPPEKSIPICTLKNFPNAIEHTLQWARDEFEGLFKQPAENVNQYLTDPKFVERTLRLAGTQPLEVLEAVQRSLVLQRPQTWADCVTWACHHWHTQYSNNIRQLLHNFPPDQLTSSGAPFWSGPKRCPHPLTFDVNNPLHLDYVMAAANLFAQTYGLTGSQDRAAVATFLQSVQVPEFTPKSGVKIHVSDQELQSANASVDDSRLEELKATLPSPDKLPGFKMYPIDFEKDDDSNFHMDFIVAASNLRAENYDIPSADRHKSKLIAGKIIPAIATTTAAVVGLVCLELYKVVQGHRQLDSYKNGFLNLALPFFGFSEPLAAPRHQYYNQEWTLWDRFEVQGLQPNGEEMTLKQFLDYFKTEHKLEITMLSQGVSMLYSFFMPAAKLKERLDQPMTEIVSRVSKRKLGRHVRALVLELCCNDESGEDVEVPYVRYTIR

Measured: inhibition

CC1C2C=CC3(C)C1(C)CCC31C(=O)O[C@H](O)[C@@H]21 (some centres not stated)
inactive: [1] | [2] | [3] | [4] | [5] | [6] | [7]
